Tested on: 636577-100-R-J1-PDC complex spheroid viability
Assay: Anticancer human tumor 636577-100-R-J1-PDC patient-derived endometrial adenocarcinoma cell line growth inhibition [GQUAD]
Details: for IC50: curve of first compound; for viability, T/C: stronger effect = lower value; active means viability on the fitted dose curve at most 10% of control; inactive means the rest
Text: DNA G-quadruplex Stabilizer Agents in Combinations in Complex Spheroids
A high-throughput screen of multi-cell type tumor spheroids was designed to identify active combinations of DNA G-quadruplex stabilizer agents and targeted small molecules. Complex spheroids include a stromal component modeled by human endothelial cells (HUVEC) and fibroblasts modeled by human mesenchymal stem cells (MSCs). The concentration ranges selected for each drug and investigational agent were based upon clinically achievable concentrations if the clinical Cmax of the agent was known.
Compounds. The drugs and investigational agents: pidnarulex (CX-5461; NSC782164), APTO-253 (NSC789042), BRACO-19 (NSC847499), peposertib (NSC802822), ceralasertib (NSC780249), elimusertib (NSC800525), camonsertib (NSC841442), AZD-1390 (NSC803789), olaparib (NSC753686), talazoparib (NSC767125), ART-558 (NSC835418), sotorasib (NSC818433), MRTX-1133 (NSC836407), SN-38 (NSC673596), topotecan (NSC609699), etoposide (NSC141540), doxorubicin (NSC123127), gemcitabine (NSC613327), 5-fluorouracil (NSC19893), paclitaxel (NSC125973), vemurafenib (NSC761431), panobinostat (NSC761190), R-306465 (JNJ-16241199; NSC773264), adavosertib (NSC754352), TP-3654 (NSC805149), carboplatin (NSC241240), KSQ-4279 (NSC840948), and staurosporine (NSC755774) were obtained from the National Cancer Institute (NCI) Developmental Therapeutics Program Chemical Repository (34). The FDA-approved anticancer drug set is available from the NCI Developmental Therapeutics Program. […] The stock solutions were prepared in dimethyl sulfoxide (DMSO, Sigma-Aldrich, St. Louis, MO, cat. D2650) at 800-fold the tested concentration and stored at -70 degrees C prior to their use. All drugs and investigational agents were tested over a range starting from a high concentration at or near the clinical Cmax and decreasing in half-log increments. If the clinical Cmax for an agent had not been determined, the highest concentration tested was 10 microM.
2.3 Cell Culture. All cells were maintained in an incubator at 37 degrees C and 5% CO2 with 95% humidity. The PDC lines were cultured according to standard operating procedures established by the NCI PDMR. All PDCs were thawed and cultured in Matrigel-coated flasks prepared with a working solution of 1X Ham's F-12 nutrient mix, without supplementation (Invitrogen, cat. 11765054), 100 U/mL penicillin-streptomycin (Invitrogen, cat. 15140122), and 2.5% Matrigel (Corning Inc., cat. 354248) for the first three passages. The 857933-349-R-J2-PDC line was cultured in 6C/Colon 1B media, which includes advanced DMEM/F-12 (Thermo Fisher Scientific, cat. 12634028), 10 mM HEPES (Thermo Fisher Scientific, cat. 15630080), 1X GlutaMAX supplement (Thermo Fisher Scientific, cat. 35050061), 0.1 mg/mL primocin (InvivoGen, cat. ant-pm-2), 10% defined fetal bovine serum, heat inactivated (HyClone Laboratories Inc., cat. SH30070.03HI), 50% L-WRN conditioned media (ATCC, cat. CRL-3276), 1.25 mM N-Acetyl-L-cysteine (Sigma-Aldrich, cat. A9165), 10 mM nicotinamide (Sigma-Aldrich, cat. N0636), 1X B-27 supplement (Thermo Fisher Scientific, cat. 17504044), 1X N-2 supplement (Thermo Fisher Scientific, cat. 17502048), 10 microM Y-27632 dihydrochloride (Tocris Bioscience, cat. 1254), and 50 ng/mL human EGF recombinant protein (Thermo Fisher Scientific, cat. PHG0311). The 485176-168-R4-J1-PDC line was cultured in Panc media, which includes all 6C/Colon 1B media components plus 100 ng/mL human FGF-10 (Thermo Fisher Scientific, cat. 100-26), 500 nM SB-431542 (Selleckchem, cat. S1067), and gastrin (Tocris, cat. 3006).
[…]
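Further: viability read after seven days of drug exposure.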
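Wherever viability, T/C is given: luminescence signal used as a proxy for viable cells; 100% = DMSO vehicle control wells.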

CC(=O)O[C@H]1C(=O)[C@@]2(C)[C@H]([C@H](OC(=O)c3ccccc3)[C@]3(O)C[C@H](OC(=O)[C@H](O)[C@@H](NC(=O)c4ccccc4)c4ccccc4)C(C)=C1C3(C)C)[C@]1(OC(C)=O)CO[C@@H]1C[C@@H]2O + CN(C)c1ccc(Nc2c3ccc(NC(=O)CCN4CCCC4)cc3nc3cc(NC(=O)CCN4CCCC4)ccc23)cc1
< 31.6 nM: IC50 (second compound 0.0316 µM) | IC50 (second compound 0.1 µM) | IC50 (second compound 0.316 µM) | IC50 (second compound 1 µM) | IC50 (second compound 3.16 µM) | IC50 (second compound 10 µM)
active: viability, T/C (second compound 0.1 µM, first compound 1 µM) 8.93% | viability, T/C (second compound 0.1 µM, first compound 3.16 µM) 9.82% | viability, T/C (second compound 0.1 µM, first compound 10 µM) 8.97% | viability, T/C (second compound 10 µM, first compound 0.0316 µM) 4.59% | viability, T/C (second compound 10 µM, first compound 0.1 µM) 3.8% | viability, T/C (second compound 10 µM, first compound 0.316 µM) 2.57% | viability, T/C (second compound 10 µM, first compound 1 µM) 3.21% | viability, T/C (second compound 10 µM, first compound 3.16 µM) 3.16% | viability, T/C (second compound 10 µM, first compound 10 µM) 2.15%
inactive: viability, T/C (second compound 0.0316 µM, first compound 0.0316 µM) 20.1% | viability, T/C (second compound 0.0316 µM, first compound 0.1 µM) 12.8% | viability, T/C (second compound 0.0316 µM, first compound 0.316 µM) 13.3% | viability, T/C (second compound 0.0316 µM, first compound 1 µM) 11.8% | viability, T/C (second compound 0.0316 µM, first compound 3.16 µM) 11.5% | viability, T/C (second compound 0.0316 µM, first compound 10 µM) 10.8% | viability, T/C (second compound 0.1 µM, first compound 0.0316 µM) 18.8% | viability, T/C (second compound 0.1 µM, first compound 0.1 µM) 13.5% | viability, T/C (second compound 0.1 µM, first compound 0.316 µM) 11.4% | viability, T/C (second compound 0.316 µM, first compound 0.0316 µM) 15.9% | viability, T/C (second compound 0.316 µM, first compound 0.1 µM) 12.3% | viability, T/C (second compound 0.316 µM, first compound 0.316 µM) 10.4% | viability, T/C (second compound 0.316 µM, first compound 1 µM) 12.6% | viability, T/C (second compound 0.316 µM, first compound 3.16 µM) 9.5% | viability, T/C (second compound 0.316 µM, first compound 10 µM) 10.1% | viability, T/C (second compound 1 µM, first compound 0.0316 µM) 15.9% | viability, T/C (second compound 1 µM, first compound 0.1 µM) 12.8% | viability, T/C (second compound 1 µM, first compound 0.316 µM) 12.5% | viability, T/C (second compound 1 µM, first compound 1 µM) 11.6% | viability, T/C (second compound 1 µM, first compound 3.16 µM) 10% | viability, T/C (second compound 1 µM, first compound 10 µM) 10.4% | viability, T/C (second compound 3.16 µM, first compound 0.0316 µM) 16.2% | viability, T/C (second compound 3.16 µM, first compound 0.1 µM) 12.7% | viability, T/C (second compound 3.16 µM, first compound 0.316 µM) 13.4% | viability, T/C (second compound 3.16 µM, first compound 1 µM) 11.6% | viability, T/C (second compound 3.16 µM, first compound 3.16 µM) 11.8% | viability, T/C (second compound 3.16 µM, first compound 10 µM) 11.2%
